{
  "source": "patent US20250319640A1",
  "about": "“ACTIVE AND/OR INTELLIGENT PACKAGING MATERIALS CONTAINING RADICAL SCAVENGING LIGANDS” (CORNELL UNIVERSITY, priority 2022, published 2025)",
  "key": {"[1]": {"conditions": "printed as pH 7.8; cited from earlier work"}, "[2]": {"system": "L. monocytogenes FSL C1-0053", "assay": "Bacterial growth inhibition assay (modified JIS Z2801: 2000)", "type": "cell-based", "excerpt": "(§1) The Japanese Industrial Standard (JIS) Z2801: 2000 method was slightly modified to analyze antibacterial activity of treated films against food-borne pathogenic bacteria (Association JS., “Antimicrobial products: Test for Antimicrobial Activity and Efficacy,” Japanese Industrial Standard JIS Z 2801 (2000), which is hereby incorporated by reference its entirety). Briefly, a culture of E. coli ATCC strain no. 25922 and a culture of L. monocytogenes from a food isolate were stored in 20% glycerol at −80° C. until use. The L. monocytogenes strain was obtained from the Cornell Food Safety Laboratory Bacterial Strains Collection as FSL C1-0053 and originally isolated from a finished ready-to-eat dairy food product. The cultures were streaked on tryptic soy agar (TSA) and incubated at 37° C. for E. coli and 30° C. L. monocytogenes for 24 hours. An isolated colony from each plate was used to inoculate 12 mL of tryptic soy broth (TSB), which was incubated with shaking for 24 hours at 37° C. A 100 μL aliquot of each culture was used to inoculate 50 mL TSB, which was incubated with shaking for 24 hours at 37° C. to achieve a cell density of 10^9 CFU/mL, which was confirmed by plate count on TSA. Each culture was diluted to reach a starting concentration of 10^5 CFU/mL, also confirmed by plate count on TSA. Treated films were cut into 5×5 cm^2 squares and stored in sterile conditions after the ethanol wash described in the synthesis step. A 0.4 mL aliquot of each 10^5 CFU/mL culture was placed on the treated films and covered with a 4×4 cm^2 sterile PP film to create a sandwich. The PP cover was lightly pressed down with sterile tweezers to distribute the inoculum across the treated film and the sandwich was placed in a Petri dish. The Petri dish was placed in an airtight box containing paper towels saturated with 100 mL of filtered water to maintain a humid environment. The entire apparatus was incubated at 37° C. for 24 hours. After incubation, 10 mL of phosphate buffered saline (PBS, pH 7.4) solution was pipetted into each Petri dish and well mixed to disassemble the sandwich and dilute the inoculated broth. An aliquot was taken from each Petri dish and serially diluted with PBS buffer. A 100 μL aliquot of the appropriate dilution was plated in duplicate on TSA and incubated for 24 hours at 37° C. Plates with 30-300 CFU were counted, and the average plate count of the duplicate plates was recorded. Plate counts for treated films were subtracted from the average plate count of the control to determine inhibition of bacterial growth. The assay was performed on triplicate coupons from two independently extruded batches, totaling 6 replicates per treatment.\n(§2) To determine the antimicrobial performance of free curcumin, the assay was repeated with curcumin powder added to the starting inoculum. Curcumin powder was first completely dissolved in ethanol to prepare 2 mg/mL and 0.2 mg/mL stock solutions. Stock solutions were diluted 10× in TSB to final concentrations of 200 μg/mL and 20 μg/mL curcumin, which was then inoculated to a 10^5 CFU/mL starting concentration of either E. coli or L. monocytogenes, confirmed by plate count. The procedure was repeated by replacing the curcumin stock solutions with absolute ethanol (10% v/v in TSB) to quantify any growth inhibition due to ethanol. […]"}, "[3]": {"system": "E. coli ATCC strain no. 25922", "assay": "Bacterial growth inhibition assay (modified JIS Z2801: 2000)", "type": "cell-based", "excerpt": "as §1, §2"}, "[4]": {"conditions": "cited from earlier work"}, "[5]": {"system": "E. coli", "conditions": "against E. coli, previous studies; cited from earlier work"}},
  "data": [
    {"smiles": "COc1cc(/C=C/C(=O)CC(=O)/C=C/c2ccc(O)c(OC)c2)ccc1O", "note": "[curcumin]", "values": [
      {"measurement": "pKa of the enolic hydrogen", "setting": "[1]", "result": 7.8},
      {"measurement": "antibacterial function of free curcumin", "setting": "[2]; 20 μg/mL curcumin in TSB, L. monocytogenes", "result": "did not display any antibacterial function"},
      {"measurement": "inhibition of L. monocytogenes by free curcumin", "setting": "[2]; 200 μg/mL curcumin, partially fell out of solution in TSB", "result": "1.63±0.83 log (CFU/mL)"},
      {"measurement": "inhibition of bacterial growth compared to control", "setting": "[2]; L. monocytogenes, 10^5 CFU/mL inoculum, 37° C., 24 hours", "result": "poor bacterial inhibition"},
      {"measurement": "antibacterial function of free curcumin", "setting": "[3]; 20 μg/mL curcumin in TSB", "result": "did not display any antibacterial function"},
      {"measurement": "inhibition of bacterial growth compared to control", "setting": "[3]; 10^5 CFU/mL inoculum, 37° C., 24 hours", "result": "poor bacterial inhibition"},
      {"measurement": "water solubility", "setting": "[4]", "result": "low"},
      {"measurement": "minimum inhibitory concentration (MIC)", "setting": "[5]", "result": "100 to 200", "unit": "µg/mL"}
    ]}
  ]
}
